Assay results from patent US20170023547A1, “CHEMICAL THREAT ASSESSMENT BY RAPID MOLECULAR PHENOTYPING” (Vanderbilt University, priority 2015, published 2017).

Legend:
Format in all cases: cell-based, Human
A549 cells [1] = test: Apoptosis assay (ApoONE, caspase 3/7 activation); details: 50 μM cisplatin
Experimental: Cell viability and apoptosis were assessed by CellTiter Glo (Promega) and ApoONE (Promega) kits, respectively. Molecular changes were screened using a MALDI524 FTICR MS platform.
Human lung carcinoma A549 cells were obtained from ATCC (Manassas, Va.) and cultured in Dulbecco's Modified Eagle's Medium (DMEM, Gibco) with 10% v/v heat-inactivated fetal bovine serum (Atlanta Biologicals) and 1% v/v penicillin/streptomycin (P/S) (Gibco) at 37° C. with 5% CO2 atmosphere. Stable isotope labeling by amino acids in cell culture (SILAC) media were prepared using SILAC DMEM (Thermo Scientific) containing 10% v/v dialyzed heat-inactivated FBS (Fisher), 1% v/v P/S, proline (250 mg/L) (Thermo Scientific), and appropriate light and heavy labeled arginine (84 mg/L), lysine (146 mg/L). […]
At each time point, cell viability and apoptosis were assessed by CellTiter-Glo (Promega) and ApoONE (Promega) kits, respectively. Plates were incubated at 37° C. in a plate reader (BioTek) with data acquisition every 10 min by luminescence (1 s read time, 200 gain) and fluorescence (485 nm excitation, 528 nm emission). […] Cell viability was also assessed using the LIVE/DEAD Viability/Cytotoxicity Kit for mammalian cells (ThermoFisher). […]

A549 cells [2] = test: Molecular screening assay (MALDI FTICR MS molecular variance score); details: 1 and 6 h exposure, doses 20-100 μM
Experimental: After incubation for the respective times, wells were washed 3 times with PBS and stored at −80° C. The effect of different toxin dosage amounts and exposure times on the molecular content of a sample may be evaluated and reported directly for thousands of molecular species based upon the mass spectra that were collected for each of the samples. A comparison of the mass-to-charge (m/z) peak content between spectra from dosed cells and a reference spectrum from a non-dosed control sample delivers a mass spectrometric assessment of toxicity-induced molecular variation. However, seeking a data-driven global comparison instead of focusing on specific molecular species of interest makes the assessment of molecular change between the different experimental conditions very complex and high dimensional. To determine which dosage amount induces the greatest molecular change, a quick and broad assessment of toxicity-induced molecular variance summarizing the entire recorded mass range was developed. […]
Within each time point (represented by a 24-well plate), seven different dosage conditions were measured: six different toxin dosages and one reference condition (e.g., untreated). Per dosage condition there were nine distinct replicate measurements made: each dosage condition was represented by three replicate wells, from which three technical replicate spectra were measured per well. […]

A549 cells [3] = test: Multi-omics analysis (transcriptome, proteome, phosphoproteome, metabolome); details: 50 μM cisplatin, A549 cells, 1, 6, 24 and 48 h
Experimental: Samples were analyzed for transcriptome changes by RNA sequencing at the Genomics Services Lab, HudsonAlpha, for proteome changes by label free, SILAC, and phospho-enriched SILAC LC-MS/MS, and metabolome changes by UPLC-IM-MS and data-independent acquisition (MSE) using both hydrophilic-interaction liquid chromatography and reverse phase liquid chromatography.
RNA was isolated using the RNeasy Mini Kit (Qiagen). For each time point, untreated and cisplatin-treated samples were isolated in triplicate and analyzed by the Genomics Services Lab at HudsonAlpha. RNAseq was performed using poly(A) selection on an Illumina HiSeq v4 sequencing platform. Reads were paired-end with a read length of 50 bp and 50 million reads per sample.
Cells were scraped from slides and lysed in 300 μL of 50 mM Tris pH 8, 150 mM NaCl, 1% Nonidet 40, 1 mM EDTA with added HALT Protease Inhibitor Cocktail (Thermo Scientific), centrifuged, and assayed for protein concentration (BCA Protein Assay, Thermo Scientific Pierce) using a SpectraMax M2e Microplate Reader with SoftMax Pro software version 5 (Molecular Devices). Aliquots of 100 μg of protein were acetone precipitated in six times the volume for 2 h at −80° C. Precipitates were washed three times with cold acetone and reconstituted in 10 μL of neat trifluoroethanol (TFE) and 10 μL of 100 mM Tris (pH 8.0). […]

## N.N.[Cl][Pt][Cl] [cisplatin]
A549 cells [1]
  time of maximal caspase activation: 24 h
A549 cells [2]
  dose up to which molecular variance increased (maximum molecular response, optimal dose): 50 µM
A549 cells [3]
  percentage of unique species detected that were significantly changed: 24%
A549 cells [3]; of 53,500 unique species detected
  number of significantly changed unique species: 13,483
